A value given as a limit tells only on which side of the number the result lay.

Assay type in all cases: in vivo
The subject of one assay is Aphis craccivora. Briefly: Efficacy test against Aphis craccivora (black-eyed pea spray). Conditions: in Vigna unguiculata, 96 h, sprayed on black-eyed pea plants, nymphs, 4 days after spraying, read-out: insect mortality rate. Here is the method: (§1) 5 parts of the compound of the present invention, 93.6 parts of dimethylformamide and 1.4 parts of polyoxyethylene alkyl aryl ether were mixed and dissolved to prepare Emulsion (I) including 5% of an active ingredient.
(§2) An insect mortality rate and a controlling rate were calculated by the numerical equations shown below. Insect mortality rate(%)={(Number of dead insects)/(Number of sample insects)}×100 Controlling rate={1−(Nt)/(Nc)}×100 • wherein • Nt: number of parasites in spray-treated area; and • Nc: number of parasites in non-treated area
Black-eyed pea plants were raised in No. 3 pots and the primary leaves were inoculated with nymphs of Aphis craccivora. Emulsion (I) was diluted with water so that the concentration of the compound of the present invention was 125 ppm. Subsequently, the aforementioned diluted liquid was sprayed on the black-eyed pea plants on which the nymphs of Aphis craccivora were parasitic. The aforementioned black-eyed pea plants were then placed in a thermostatic chamber with a temperature of 25° C. and humidity of 60%. Mortality was investigated 4 days after spraying was carried out, and the insect mortality rate of Aphis craccivora was calculated. The test was performed twice.

Another assay concerns Nilaparvata lugens. As to the kind of experiment: Efficacy test against Nilaparvata lugens (rice seedling dip). To be noted: 168 h, rice seedlings soaked, second-instar larvae, 7 days after inoculation, read-out: insect mortality rate. The protocol: as §1, §2
Emulsion (I) was diluted with water so that the concentration of the compound of the present invention was 125 ppm. Rice seedlings were soaked in the diluted liquid for 30 seconds, and subjected to air-drying. Subsequently, the rice seedlings were placed in plastic cases, followed by inoculating 5 second-instar larvae of Nilaparvata lugens. The plastic cases were placed in a thermostatic chamber at a temperature of 25° C. and humidity of 65%. Mortality was investigated 7 days after inoculation, and the insect mortality rate was calculated. The test was performed twice.

Another assay has as its system Plutella xylostella. As to the kind of experiment: Efficacy test against Plutella xylostella (cabbage leaf dip). To be noted: foliar, 72 h, cabbage leaves soaked, second-instar larvae, 3 days after inoculation, read-out: insect mortality rate. Here is the method:
as §1, §2
Emulsion (I) was diluted with water so that the concentration of the compound of the present invention was 125 ppm. Cabbage leaves were soaked in the diluted liquid for 30 seconds. Subsequently, the cabbage leaves were put on Petri dishes, followed by inoculating 5 second-instar larvae of Plutella xylostella. The Petri dishes were placed in a thermostatic chamber at a temperature of 25° C. and humidity of 60%. Mortality was investigated 3 days after inoculation, and the insect mortality rate was calculated. The test was performed twice.

The subject of the next assay is Aphis gossypii. Briefly: Efficacy test against Aphis gossypii (cucumber seedling spray). To be noted: 96 h, sprayed on cucumber seedlings, nymphs, 4 days after spraying, read-out: insect mortality rate. Here is the method:
as §1, §2
Emulsion (I) was diluted with water so that the concentration of the compound of the present invention was 125 ppm. Cucumbers were raised in No. 3 pots and the first leaves were inoculated with nymphs of Aphis gossypii. The diluted emulsion mentioned above was sprayed onto the cucumber seedlings. The aforementioned cucumber seedlings were then placed in a thermostatic chamber with a temperature of 25° C. and humidity of 60%. Mortality was investigated 4 days after spraying was carried out, and the insect mortality rate of Aphis gossypii was calculated. The test was performed twice.

Assay [1] concerns adult Phyllotreta striolata. As to the kind of experiment: Efficacy test against Phyllotreta striolata (bok-choi seedling spray). Conditions: 168 h, sprayed on bok-choi seedlings, adults, 7 days after inoculation, read-out: insect mortality rate. The protocol:
as §1, §2
Emulsion (I) was diluted with water so that the concentration of the compound of the present invention was 125 ppm, to prepare a diluted liquid for testing. The aforementioned diluted liquid was sprayed on bok-choi seedlings (7th major leaf-development period) planted in No. 3 pots. After the bok-choi seedlings were subjected to air-drying, the seedlings were placed in plastic cups, followed by inoculating 10 adult Phyllotreta striolata. […] Mortality was investigated 7 days after inoculation, and the insect mortality rate was calculated. […]
Emulsion (I) was diluted with water so that the concentration of the compound of the present invention was 8 ppm, to prepare a diluted liquid for testing. […] Mortality was investigated 7 days after inoculation, and the insect mortality rate was calculated. […]

For assay [2], the system named is first-instar larvae of Culex pipiens molestus. Briefly: Efficacy test against Culex pipiens molestus (larvae in chemical liquid). Conditions: 24 h, first-instar larvae in 100 mL chemical liquid, after one day, read-out: insect mortality rate. The protocol:
as §1, §2
Emulsion (I) was diluted with water so that the concentration of the compound of the present invention was 10 ppm, to prepare a chemical liquid for testing. 20 first-instar larvae of Culex pipiens molestus were released in 100 mL of the chemical liquid. After one day, the number of dead insects was counted, and the insect mortality rate was calculated. The test was performed twice.

As to `CCS(=O)(=O)c1ccc(-n2cncn2)nc1-n1ncc(-c2ccc(OC(F)(F)F)cc2)c1C` [1-1, 3-(ethylsulfonyl)-2-(5-methyl-4-(4-(trifluoromethoxy)phenyl)-1H-pyrazol-1-yl)-6-(1H-1,2,4-triazol-1-yl)pyridine], the mortality at 125 ppm (in the assay with Aphis craccivora; in the assay on Nilaparvata lugens; with Plutella xylostella; with Aphis gossypii; in assay [1] (125 ppm)) was at least 80% throughout. For the same compound, the mortality at 8 ppm in assay [1] (8 ppm) is at least 80%. In addition, in assay [2], the mortality at 10 ppm was found to be 100%.

For the origin of these results see patent US11078181B2, “Diaryl pyrazole compound and formulation for controlling harmful organisms” (Nippon Soda Co., Ltd., priority 2016, dated 2021).
